# Laboratory results reported in patent US20260042731A1, “(2,4-DICHLOROPHENOXY)ACETIC ACID ANALOGS” (CORTEVA AGRISCIENCE LLC, priority 2022, published 2026).
# Read-outs that look alike come from different tables or passages of the source.
# What was measured:
# Type in all cases: in vivo
# [1] = test system: weeds ABUTH, AMATA, AMBEL, CHEAL, ERICA; experiment: Postemergence herbicide evaluation, overall average % weed control across ABUTH, AMATA, AMBEL, CHEAL and ERICA; details: post-emergence, read-out: Overall Ave % Weed Control
# [2] = test system: Ambrosia artemisiifolia (AMBEL), common ragweed; experiment: Postemergence herbicide evaluation, growth of Ambrosia artemisiifolia (AMBEL); details: Ambrosia artemisiifolia, post-emergence
# [3] = test system: Amaranthus rudis (AMATA), tall water hemp; experiment: Postemergence herbicide evaluation, growth of Amaranthus rudis (AMATA); details: Amaranthus tuberculatus, post-emergence
# [4] = test system: Abutilon theophrasti (ABUTH), velvetleaf; experiment: Postemergence herbicide evaluation, growth of Abutilon theophrasti (ABUTH); details: Abutilon theophrasti, post-emergence
# [5] = test system: Chenopodium album (CHEAL), common lambsquarters; experiment: Postemergence herbicide evaluation, growth of Chenopodium album (CHEAL); details: Chenopodium album, post-emergence
# [6] = test system: glyphosate resistant Conyza canadensis (L.) (ERICA), horseweed; experiment: Postemergence herbicide evaluation, growth of Conyza canadensis (ERICA); details: Erigeron canadensis, post-emergence, 560 g ae/ha, read-out: Ave. ERICA, percent reduction in plant size relative to the untreated control
# [7] = test system: weeds ABUTH, AMATA, AMBEL, CHEAL, ERICA; experiment: Postemergence herbicide evaluation, overall average % weed control (ABUTH, AMATA, AMBEL, CHEAL, ERICA); details: post-emergence, 560 g ae/ha, read-out: Overall Ave % Weed Control
smiles,measurement,setting,value
O=C(COc1ccc(Cl)cc1Cl)OCCOCCOCCOCCOC(=O)COc1ccc(Cl)cc1Cl [Compound B14],pest or weed control at 280 g/ha,[1]; 168 h,75%
same,pest or weed control at 560 g/ha,[1]; 168 h,82.5%
same,pest or weed control at 280 g/ha,[1]; 336 h,87.3%
same,pest or weed control at 560 g/ha,[1]; 336 h,94.2%
same,pest or weed control at 280 g/ha,[1]; 504 h,90.2%
same,pest or weed control at 560 g/ha,[1]; 504 h,97.6%
same,pest or weed control at 280 g/ha,"[2]; 168 h, read-out: AVE. AMBEL",82.5%
same,pest or weed control at 560 g/ha,"[2]; 168 h, read-out: AVE. AMBEL",87.5%
same,pest or weed control at 280 g/ha,"[2]; 336 h, read-out: AVE. AMBEL",75%
same,pest or weed control at 560 g/ha,"[2]; 336 h, read-out: AVE. AMBEL",89.5%
same,pest or weed control at 280 g/ha,"[2]; 504 h, read-out: AVE. AMBEL",100%
same,pest or weed control at 560 g/ha,"[2]; 504 h, read-out: AVE. AMBEL",100%
same,pest or weed control at 280 g/ha,"[3]; 168 h, read-out: Ave. AMATA",72.5%
same,pest or weed control at 560 g/ha,"[3]; 168 h, read-out: Ave. AMATA",90%
same,pest or weed control at 280 g/ha,"[3]; 336 h, read-out: Ave. AMATA",90%
same,pest or weed control at 560 g/ha,"[3]; 336 h, read-out: Ave. AMATA",96%
same,pest or weed control at 280 g/ha,"[3]; 504 h, read-out: Ave. AMATA",70%
same,pest or weed control at 560 g/ha,"[3]; 504 h, read-out: Ave. AMATA",92.5%
same,pest or weed control at 280 g/ha,"[4]; 168 h, read-out: AVE. ABUTH",60%
same,pest or weed control at 560 g/ha,"[4]; 168 h, read-out: AVE. ABUTH",70%
same,pest or weed control at 280 g/ha,"[4]; 336 h, read-out: AVE. ABUTH",77.5%
same,pest or weed control at 560 g/ha,"[4]; 336 h, read-out: AVE. ABUTH",87.5%
same,pest or weed control at 280 g/ha,"[4]; 504 h, read-out: AVE. ABUTH",92%
same,pest or weed control at 560 g/ha,"[4]; 504 h, read-out: AVE. ABUTH",97.5%
same,pest or weed control at 280 g/ha,"[5]; 168 h, read-out: Ave. CHEAL",75%
same,pest or weed control at 560 g/ha,"[5]; 168 h, read-out: Ave. CHEAL",77.5%
same,pest or weed control at 280 g/ha,"[5]; 336 h, read-out: Ave. CHEAL",94%
same,pest or weed control at 560 g/ha,"[5]; 336 h, read-out: Ave. CHEAL",98%
same,pest or weed control at 280 g/ha,"[5]; 504 h, read-out: Ave. CHEAL",90%
same,pest or weed control at 560 g/ha,"[5]; 504 h, read-out: Ave. CHEAL",99%
COc1ccc(/C=N/OC(=O)COc2ccc(Cl)cc2Cl)cc1 [Compound A31],pest or weed control at 560 g/ha,"[6]; 168 h, 7 DAA",82.5%
same,pest or weed control at 560 g/ha,"[6]; 336 h, 14 DAA",89.5%
same,pest or weed control at 560 g/ha,"[6]; 504 h, 21 DAA",98.5%
same,pest or weed control at 560 g/ha,"[2]; 168 h, 560 g ae/ha, 7 DAA, read-out: AVE. AMBEL, percent reduction in plant size relative to the untreated control",62.5%
same,pest or weed control at 560 g/ha,"[2]; 336 h, 560 g ae/ha, 14 DAA, read-out: AVE. AMBEL, percent reduction in plant size relative to the untreated control",75%
same,pest or weed control at 560 g/ha,"[2]; 504 h, 560 g ae/ha, 21 DAA, read-out: AVE. AMBEL, percent reduction in plant size relative to the untreated control",100%
same,pest or weed control at 560 g/ha,"[3]; 168 h, 560 g ae/ha, 7 DAA, read-out: Ave. AMATA, percent reduction in plant size relative to the untreated control",75%
same,pest or weed control at 560 g/ha,"[3]; 336 h, 560 g ae/ha, 14 DAA, read-out: Ave. AMATA, percent reduction in plant size relative to the untreated control",96%
same,pest or weed control at 560 g/ha,"[3]; 504 h, 560 g ae/ha, 21 DAA, read-out: Ave. AMATA, percent reduction in plant size relative to the untreated control",67.5%
same,pest or weed control at 560 g/ha,"[4]; 168 h, 560 g ae/ha, 7 DAA, read-out: AVE. ABUTH, percent reduction in plant size relative to the untreated control",40%
same,pest or weed control at 560 g/ha,"[4]; 336 h, 560 g ae/ha, 14 DAA, read-out: AVE. ABUTH, percent reduction in plant size relative to the untreated control",57.5%
same,pest or weed control at 560 g/ha,"[4]; 504 h, 560 g ae/ha, 21 DAA, read-out: AVE. ABUTH, percent reduction in plant size relative to the untreated control",70%
same,pest or weed control at 560 g/ha,"[7]; 168 h, 7 DAA",68.5%
same,pest or weed control at 560 g/ha,"[7]; 336 h, 14 DAA",83%
same,pest or weed control at 560 g/ha,"[7]; 504 h, 21 DAA",86.4%
same,pest or weed control at 560 g/ha,"[5]; 168 h, 560 g ae/ha, 7 DAA, read-out: Ave. CHEAL, percent reduction in plant size relative to the untreated control",82.5%
same,pest or weed control at 560 g/ha,"[5]; 336 h, 560 g ae/ha, 14 DAA, read-out: Ave. CHEAL, percent reduction in plant size relative to the untreated control",97%
same,pest or weed control at 560 g/ha,"[5]; 504 h, 560 g ae/ha, 21 DAA, read-out: Ave. CHEAL, percent reduction in plant size relative to the untreated control",96%
